Reference: patent US9718792B2, “Isoxazoline hydroxamic acid derivatives as LpxC inhibitors” (priority 2014, dated 2017)
In brackets after ≈: the same amount, converted by molar mass. Like-named read-outs stand apart in the source and are kept apart here.

Columns and labels:
[1] = biological target: P. aeruginosa LpxC (Pseudomonas aeruginosa (strain ATCC 15692 / DSM 22644 / CIP 104116 / JCM 14847 / LMG 12228 / 1C / PRS 101 / PAO1), UniProt P47205); assay: P. aeruginosa LpxC Inhibition Assay; assay type: biochemical; details: 2 μM substrate, LC-MS/MS
Procedure, shortened: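 Compounds pre-incubated 30 min at room temperature with 1 nM LpxC, then 2 μM UDP-3-O-(R-3-hydroxydecanoyl)-GlcNAc added; 20 min reaction in 50 mM sodium phosphate pH 7.5, 0.005% Triton X-100, quenched with HOAc. Product quantified by LC-MS/MS against calibration curve; IC50 from four-parameter logistic fit.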

[2] = system: P. aeruginosa PAO1; assay: Susceptibility Testing (MIC, broth microdilution); assay type: cell-based, Pseudomonas aeruginosa; details: Pseudomonas aeruginosa, PAO1, 20 h, P. aeruginosa PAO1, broth microdilution, 20 hours; read-out: PAO1 MIC
Procedure, shortened: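 Broth microdilution per CLSI in cation-adjusted Mueller-Hinton broth, inoculum ~5×10^5 CFU/mL, two-fold compound dilutions (1% DMSO final). Plates incubated 20 h in ambient air at 35° C. MIC is the lowest concentration preventing visible growth, confirmed by OD 600 nm reading.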

[3] = 1 nM P. aeruginosa LpxC, read-out: PA LpxC IC50

SMILES | IC50 [1, 3] | MIC [2] | IC50 ([1]; PA LpxC IC50, 1 nM P. aeruginosa LpxC)
C[C@@H](O)Cc1ccc(-c2ccc(C3=NO[C@@H](C[C@](C)(C(=O)NO)S(C)(=O)=O)C3)cc2F)c(F)c1 [Compound 115, (R)-3-((R)-3-(2,2′-difluoro-4′-((R)-2-hydroxypropyl)-[1,1′-biphenyl]-4-yl)-4,5-dihydroisoxazol-5-yl)-N-hydroxy-2-methyl-2-(methylsulfonyl)propanamide] | < 0.5 nM | 1 mg/L (≈ 2.01 µM) | –
Cc1cc(C[C@@H](C)O)ccc1-c1ccc(C2=NO[C@@H](C[C@](C)(C(=O)NO)S(C)(=O)=O)C2)cc1 [Compound 90, (R)-3-((R)-3-(2′-methyl-4′-((R)-2-hydroxypropyl)-[1,1′-biphenyl]-4-yl)-4,5-dihydroisoxazol-5-yl)-N-hydroxy-2-methyl-2-(methylsulfonyl) propanamide] | < 0.5 nM | 0.5 mg/L (≈ 1.05 µM) | –
CCC#Cc1ccc(C2=NOC(CC(C)(C(=O)NO)S(C)(=O)=O)C2)cc1 (single isomer, unassigned) [Compound 8-B, 3-(3-(4-(but-1-yn-1-yl)phenyl)-4,5-dihydroisoxazol-5-yl)-N-hydroxy-2-methyl-2-(methylsulfonyl)propanamide] | 0.5 nM | 1 mg/L (≈ 2.64 µM) | –
C[C@@](C[C@H]1CC(c2ccc(-c3ccc(OCCO)cc3)cc2)=NO1)(C(=O)NO)S(C)(=O)=O [Compound 50, (R)—N-hydroxy-3-((R)-3-(4′-(2-hydroxyethoxy)-[1,1′-biphenyl]-4-yl)-4,5-dihydroisoxazol-5-yl)-2-methyl-2-(methylsulfonyl)] | 0.7 nM | 0.18 mg/L (≈ 0.389 µM) | –
C/C=C(\F)c1ccc(C2=NO[C@@H](C[C@](C)(C(=O)NO)S(C)(=O)=O)C2)cc1 [Compound 29, (R)-3-((R)-3-(4-((Z)-1-fluoroprop-1-en-1-yl)phenyl)-4,5-dihydroisoxazol-5-yl)-N-hydroxy-2-methyl-2-(methylsulfonyl)propanamide] | 0.6 nM | 0.125 mg/L (≈ 0.325 µM) | –
Cc1cc(-c2ccc(C3=NO[C@@H](C[C@](C)(C(=O)NO)S(C)(=O)=O)C3)cc2F)cc(C)n1 [Compound 118, (R)-3-((R)-3-(4-(2,6-dimethylpyridin-4-yl)-3-fluorophenyl)-4,5-dihydroisoxazol-5-yl)-N-hydroxy-2-methyl-2-(methylsulfonyl)propanamide] | 4 nM | 4 mg/L (≈ 8.9 µM) | –
COC1CC(C#Cc2ccc(C3=NO[C@@H](C[C@](C)(C(=O)NO)S(C)(=O)=O)C3)cc2)C1 (stereo partly drawn) [Compound 44, (R)—N-hydroxy-3-((R)-3-(4-((3-methoxycyclobutyl)ethynyl)phenyl)-4,5-dihydroisoxazol-5-yl)-2-methyl-2-(methylsulfonyl)propanamide] | 0.8 nM | 0.5 mg/L (≈ 1.15 µM) | –
C[C@@](C[C@H]1CC(c2ccc(-c3ccc(CCO)cc3)c(F)c2)=NO1)(C(=O)NO)S(C)(=O)=O [Compound 102, (R)-3-((R)-3-(2-fluoro-4′-(2-hydroxyethyl)-[1,1′-biphenyl]-4-yl)-4,5-dihydroisoxazol-5-yl)-N-hydroxy-2-methyl-2-(methylsulfonyl)] | < 0.5 nM | 0.18 mg/L (≈ 0.388 µM) | –
CC(CC1CC(c2ccc(C#CCCO)cc2)=NO1)(C(=O)NO)S(C)(=O)=O (single isomer, unassigned) [Compound 10-B, N-hydroxy-3-(3-(4-(4-hydroxybut-1-yn-1-yl)phenyl)-4,5-dihydroisoxazol-5-yl)-2-methyl-2-(methylsulfonyl)propanamide] | < 0.5 nM | 1 mg/L (≈ 2.54 µM) | –
C[C@@](C[C@H]1CC(c2ccc(-c3ccc(CO)nc3)cc2)=NO1)(C(=O)NO)S(C)(=O)=O [Compound 65, (R)—N-hydroxy-3-((R)-3-(4-(6-(hydroxymethyl)pyridin-3-yl)phenyl)-4,5-dihydroisoxazol-5-yl)-2-methyl-2-(methylsulfonyl)propanamide] | < 0.5 nM | 1 mg/L (≈ 2.31 µM) | –
Cn1cc(-c2ccc(C3=NO[C@@H](C[C@](C)(C(=O)NO)S(C)(=O)=O)C3)cc2)ccc1=O [Compound 68, (R)—N-hydroxy-2-methyl-3-((R)-3-(4-(1-methyl-6-oxo-1,6-dihydropyridin-3-yl)phenyl)-4,5-dihydroisoxazol-5-yl)-2-(methylsulfonyl)propanamide] | – | 16 mg/L (≈ 36.9 µM) | 2 nM
C[C@@H](O)[C@@H](O)Cc1ccc(-c2ccc(C3=NO[C@@H](C[C@](C)(C(=O)NO)S(C)(=O)=O)C3)cc2)cc1 [Compound 93, (R)-3-((R)-3-(4′-((2S,3R)-2,3-dihydroxybutyl)-[1,1′-biphenyl]-4-yl)-4,5-dihydroisoxazol-5-yl)-N-hydroxy-2-methyl-2-(methylsulfonyl) propanamide] | < 0.5 nM | 2 mg/L (≈ 4.08 µM) | –
COCCOc1ccc(-c2ccc(C3=NO[C@@H](C[C@](C)(C(=O)NO)S(C)(=O)=O)C3)cc2)cc1 [Compound 48, (R)—N-hydroxy-3-((R)-3-(4′-(2-methoxyethoxy)-[1,1′-biphenyl]-4-yl)-4,5-dihydroisoxazol-5-yl)-2-methyl-2-(methylsulfonyl)propanamide] | 1 nM | 0.25 mg/L (≈ 0.525 µM) | –
C[C@@](C[C@H]1CC(c2ccc(-c3ccncc3F)cc2F)=NO1)(C(=O)NO)S(C)(=O)=O [Compound 119, (R)-3-((R)-3-(2-fluoro-4-(3-fluoropyridin-4-yl)phenyl)-4,5-dihydroisoxazol-5-yl)-N-hydroxy-2-methyl-2-(methylsulfonyl)propanamide] | < 0.5 nM | 0.71 mg/L (≈ 1.62 µM) | –
COc1ccc(-c2ccc(C3=NO[C@@H](C[C@](C)(C(=O)NO)S(C)(=O)=O)C3)cc2)cn1 [Compound 66, (R)—N-hydroxy-3-((R)-3-(4-(6-methoxypyridin-3-yl)phenyl)-4,5-dihydroisoxazol-5-yl)-2-methyl-2-(methylsulfonyl)propanamide] | < 0.5 nM | 0.25 mg/L (≈ 0.577 µM) | –
Cc1ccc(-c2ccc(C3=NO[C@@H](C[C@](C)(C(=O)NO)S(C)(=O)=O)C3)cc2)cn1 [Compound 67, (R)—N-hydroxy-2-methyl-3-((R)-3-(4-(6-methylpyridin-3-yl)phenyl)-4,5-dihydroisoxazol-5-yl)-2-(methylsulfonyl) propanamide] | < 0.5 nM | 0.35 mg/L (≈ 0.838 µM) | –
C[C@@](C[C@H]1CC(c2ccc(-c3ccc(CC#N)cc3)c(F)c2)=NO1)(C(=O)NO)S(C)(=O)=O [Compound 104, (R)-3-((R)-3-(4′-(cyanomethyl)-2-fluoro-[1,1′-biphenyl]-4-yl)-4,5-dihydroisoxazol-5-yl)-N-hydroxy-2-methyl-2-(methylsulfonyl)propanamide] | 0.5 nM | 0.125 mg/L (≈ 0.272 µM) | –
CCC#Cc1ccc(C2=NO[C@@H](C[C@](C)(C(=O)NO)S(C)(=O)=O)C2)cc1 [Compound 62, (R)-3-((R)-3-(4-(but-1-yn-1-yl)phenyl)-4,5-dihydroisoxazol-5-yl)-N-hydroxy-2-methyl-2-(methylsulfonyl)propanamide] | < 0.5 nM | 0.33 mg/L (≈ 0.872 µM) | –
COCC(C)(O)c1ccc(-c2ccc(C3=NO[C@@H](C[C@](C)(C(=O)NO)S(C)(=O)=O)C3)cc2)cc1 (stereo partly drawn) [Compound 51, (2R)—N-hydroxy-3-((5R)-3-(4′-(2-hydroxy-1-methoxypropan-2-yl)-[1,1′-biphenyl]-4-yl)-4,5-dihydroisoxazol-5-yl)-2-methyl-2-(methylsulfonyl)propanamide] | 0.8 nM | 1.4 mg/L (≈ 2.85 µM) | –
C[C@@](C[C@H]1CC(c2ccc(CCCCF)cc2)=NO1)(C(=O)NO)S(C)(=O)=O [Compound 34, (R)-3-((R)-3-(4-(4-fluorobutyl)phenyl)-4,5-dihydroisoxazol-5-yl)-N-hydroxy-2-methyl-2-(methylsulfonyl) propanamide] | 2 nM | 0.5 mg/L (≈ 1.25 µM) | –
